Legend:
PI3Kγ = molecular target: T1, PI3Kγ (Homo sapiens, UniProt P48736); test: Kinase competition binding assay (Ambit Biosciences), PI3Kγ; details: tested at Ambit Biosciences; read-out: IC50 against PI3Kγ
T1 construct: purchased Ambit Biosciences (contract assay)
Procedure: (§1) Assays are performed as described in Fabian et al. (2005) Nature Biotechnology, vol. 23, p. 329 and in Karaman et al. (2008) Nature Biotechnology, vol. 26, p. 127.
(§2) Kinase assays. For most assays, kinase-tagged T7 phage strains are grown in parallel in 24-well blocks in an E. coli host derived from the BL21 strain. E. coli are grown to log-phase and are infected with T7 phage from a frozen stock (multiplicity of infection˜0.1) and are incubated with shaking at 32° C. until lysis (˜90 minutes). The lysates are centrifuged (6,000×g) and filtered ([…]) to remove cell debris. The remaining kinases are produced in HEK-293 cells and subsequently tagged with DNA for qPCR detection. Streptavidin-coated magnetic beads are treated with biotinylated small molecule ligands for 30 minutes at room temperature to generate affinity resins for kinase assays. The liganded beads are blocked with excess biotin and washed with blocking buffer (SeaBlock (Pierce), 1% BSA, 0.05% Tween 20, 1 mM DTT) to remove unbound ligand and to reduce non-specific phage binding. Binding reactions are assembled by combining kinases, liganded affinity beads, and test compounds in 1× binding buffer (20% SeaBlock, 0.17×PBS, 0.05% Tween 20, 6 mM DTT). Test compounds are prepared as 40× stocks in 100% DMSO and directly diluted into the assay. All reactions are performed in polypropylene 384-well plates in a final volume of 0.04 ml. The assay plates are incubated at room temperature with shaking for 1 hour and the affinity beads are washed with wash buffer (1×PBS, 0.05% Tween 20). The beads are then re-suspended in elution buffer (1×PBS, 0.05% Tween 20, 0.5 mM non-biotinylated affinity ligand) and are incubated at room temperature with shaking for 30 minutes. The kinase concentration in the eluates is measured by qPCR.
(§3) Compounds were tested using the above assay at Ambit Biosciences (San Diego, Calif., USA).

U87-MG cells = test: Proliferation assay (Alamar blue), U87-MG; assay type: cell-based; details: Homo sapiens, U-87 MG, 48 h, 46-h incubation + 2-h Alamar blue, read-out: IC50 against proliferation of U87-MG cells
Procedure: (§4) Cells (U87-MG, A375, HeLa, A549, MCF7, and MCF7 ADR-res) are cultured in DMEM with 10% fetal bovine serum and streptomycin/penicillin. Solutions of the test compounds (1 μL) are spotted onto a 96-well culture plate, followed by addition of cells (1×10^4) in 100 μL. After 46-h incubation, 10 μL of Alamar blue reagent is added to each well. After 2-h, the excitation/emission wavelengths at 544/590 nm are measured using Fluostar.

A549 cells = test: Proliferation assay (Alamar blue), A549; assay type: cell-based; details: Homo sapiens, 48 h; A549, 46-h incubation + 2-h Alamar blue; read-out: IC50 against proliferation of A549 cells
Procedure: as §4

PI3Kδ = molecular target: T2, PI3Kδ (Homo sapiens, UniProt O00329); test: Kinase competition binding assay (Ambit Biosciences), PI3Kδ; details: tested at Ambit Biosciences; read-out: IC50 against PI3Kδ
T2 construct: purchased Ambit Biosciences (contract assay)
T2 sequence (O00329 1-1044): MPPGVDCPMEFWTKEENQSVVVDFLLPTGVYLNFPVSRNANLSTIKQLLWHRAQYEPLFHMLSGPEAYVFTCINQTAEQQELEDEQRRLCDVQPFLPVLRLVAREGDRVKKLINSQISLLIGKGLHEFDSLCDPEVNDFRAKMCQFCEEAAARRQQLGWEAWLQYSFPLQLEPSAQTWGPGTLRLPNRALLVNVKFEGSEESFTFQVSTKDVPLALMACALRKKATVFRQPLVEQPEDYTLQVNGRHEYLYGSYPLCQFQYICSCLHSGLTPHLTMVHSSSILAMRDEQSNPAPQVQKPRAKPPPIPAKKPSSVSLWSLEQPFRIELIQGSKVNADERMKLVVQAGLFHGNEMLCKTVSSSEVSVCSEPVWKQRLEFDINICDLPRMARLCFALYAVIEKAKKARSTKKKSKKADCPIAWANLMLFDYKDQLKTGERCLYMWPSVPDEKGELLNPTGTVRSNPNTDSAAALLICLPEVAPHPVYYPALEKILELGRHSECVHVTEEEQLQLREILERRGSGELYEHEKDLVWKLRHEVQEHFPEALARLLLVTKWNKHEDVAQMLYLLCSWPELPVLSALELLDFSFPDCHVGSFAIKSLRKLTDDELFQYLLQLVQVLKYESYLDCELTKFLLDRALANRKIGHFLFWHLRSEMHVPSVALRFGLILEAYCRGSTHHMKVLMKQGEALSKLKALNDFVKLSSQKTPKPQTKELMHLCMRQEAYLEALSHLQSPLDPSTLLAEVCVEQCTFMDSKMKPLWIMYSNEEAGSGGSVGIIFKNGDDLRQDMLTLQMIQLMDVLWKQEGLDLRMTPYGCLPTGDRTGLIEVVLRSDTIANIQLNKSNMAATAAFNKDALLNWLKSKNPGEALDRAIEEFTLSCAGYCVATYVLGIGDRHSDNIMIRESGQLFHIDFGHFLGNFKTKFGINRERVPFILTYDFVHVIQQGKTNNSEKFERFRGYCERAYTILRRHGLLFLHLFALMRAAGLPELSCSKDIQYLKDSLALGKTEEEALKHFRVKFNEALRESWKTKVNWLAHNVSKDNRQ
Procedure: as §1, §2, §3

mTOR = molecular target: T3, mTOR (Homo sapiens, UniProt P42345); test: Kinase competition binding assay (Ambit Biosciences), mTOR; details: tested at Ambit Biosciences; read-out: IC50 against mTOR
T3 construct: purchased Ambit Biosciences (contract assay)
Procedure: as §1, §2, §3

PI3Kα = molecular target: T4, PI3Kα (Homo sapiens, UniProt P42336); test: Kinase competition binding assay (Ambit Biosciences), PI3Kα; details: tested at Ambit Biosciences; read-out: IC50 against PI3Kα
T4 construct: purchased Ambit Biosciences (contract assay)
Procedure: as §1, §2, §3

PI3Kβ = molecular target: T5, PI3Kβ (Homo sapiens, UniProt P42338); test: Kinase competition binding assay (Ambit Biosciences), PI3Kβ; details: tested at Ambit Biosciences; read-out: IC50 against PI3Kβ
T5 construct: purchased Ambit Biosciences (contract assay)
Procedure: as §1, §2, §3

T5 sequence (P42338 whole entry): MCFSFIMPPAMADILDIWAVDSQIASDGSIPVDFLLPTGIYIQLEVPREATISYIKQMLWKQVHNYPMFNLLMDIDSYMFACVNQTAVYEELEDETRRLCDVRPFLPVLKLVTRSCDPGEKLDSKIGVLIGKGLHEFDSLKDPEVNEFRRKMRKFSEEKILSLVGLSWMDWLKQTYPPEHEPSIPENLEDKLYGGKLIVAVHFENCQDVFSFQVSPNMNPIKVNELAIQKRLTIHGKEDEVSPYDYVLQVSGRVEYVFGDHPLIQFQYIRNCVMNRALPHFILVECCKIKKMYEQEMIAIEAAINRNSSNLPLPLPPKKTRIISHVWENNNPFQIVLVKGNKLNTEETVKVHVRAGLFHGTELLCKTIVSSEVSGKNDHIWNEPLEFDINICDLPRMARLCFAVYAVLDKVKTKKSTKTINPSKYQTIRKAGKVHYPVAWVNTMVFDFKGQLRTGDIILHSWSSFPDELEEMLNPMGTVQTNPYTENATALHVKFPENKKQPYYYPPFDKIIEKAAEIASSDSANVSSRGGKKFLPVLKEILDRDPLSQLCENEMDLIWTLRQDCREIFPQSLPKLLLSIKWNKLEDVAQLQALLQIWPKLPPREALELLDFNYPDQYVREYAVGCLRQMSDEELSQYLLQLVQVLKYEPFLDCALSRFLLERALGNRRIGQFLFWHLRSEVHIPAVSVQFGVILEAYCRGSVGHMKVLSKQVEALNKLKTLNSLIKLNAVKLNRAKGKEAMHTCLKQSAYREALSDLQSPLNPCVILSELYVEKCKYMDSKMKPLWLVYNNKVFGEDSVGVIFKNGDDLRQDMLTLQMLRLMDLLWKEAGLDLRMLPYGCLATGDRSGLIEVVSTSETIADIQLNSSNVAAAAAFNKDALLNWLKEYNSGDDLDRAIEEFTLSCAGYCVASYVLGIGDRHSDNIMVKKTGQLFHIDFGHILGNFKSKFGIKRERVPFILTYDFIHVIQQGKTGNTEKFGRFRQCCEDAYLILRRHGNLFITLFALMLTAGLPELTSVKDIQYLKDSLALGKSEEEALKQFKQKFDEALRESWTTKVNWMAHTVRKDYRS
T1 sequence (P48736 whole entry): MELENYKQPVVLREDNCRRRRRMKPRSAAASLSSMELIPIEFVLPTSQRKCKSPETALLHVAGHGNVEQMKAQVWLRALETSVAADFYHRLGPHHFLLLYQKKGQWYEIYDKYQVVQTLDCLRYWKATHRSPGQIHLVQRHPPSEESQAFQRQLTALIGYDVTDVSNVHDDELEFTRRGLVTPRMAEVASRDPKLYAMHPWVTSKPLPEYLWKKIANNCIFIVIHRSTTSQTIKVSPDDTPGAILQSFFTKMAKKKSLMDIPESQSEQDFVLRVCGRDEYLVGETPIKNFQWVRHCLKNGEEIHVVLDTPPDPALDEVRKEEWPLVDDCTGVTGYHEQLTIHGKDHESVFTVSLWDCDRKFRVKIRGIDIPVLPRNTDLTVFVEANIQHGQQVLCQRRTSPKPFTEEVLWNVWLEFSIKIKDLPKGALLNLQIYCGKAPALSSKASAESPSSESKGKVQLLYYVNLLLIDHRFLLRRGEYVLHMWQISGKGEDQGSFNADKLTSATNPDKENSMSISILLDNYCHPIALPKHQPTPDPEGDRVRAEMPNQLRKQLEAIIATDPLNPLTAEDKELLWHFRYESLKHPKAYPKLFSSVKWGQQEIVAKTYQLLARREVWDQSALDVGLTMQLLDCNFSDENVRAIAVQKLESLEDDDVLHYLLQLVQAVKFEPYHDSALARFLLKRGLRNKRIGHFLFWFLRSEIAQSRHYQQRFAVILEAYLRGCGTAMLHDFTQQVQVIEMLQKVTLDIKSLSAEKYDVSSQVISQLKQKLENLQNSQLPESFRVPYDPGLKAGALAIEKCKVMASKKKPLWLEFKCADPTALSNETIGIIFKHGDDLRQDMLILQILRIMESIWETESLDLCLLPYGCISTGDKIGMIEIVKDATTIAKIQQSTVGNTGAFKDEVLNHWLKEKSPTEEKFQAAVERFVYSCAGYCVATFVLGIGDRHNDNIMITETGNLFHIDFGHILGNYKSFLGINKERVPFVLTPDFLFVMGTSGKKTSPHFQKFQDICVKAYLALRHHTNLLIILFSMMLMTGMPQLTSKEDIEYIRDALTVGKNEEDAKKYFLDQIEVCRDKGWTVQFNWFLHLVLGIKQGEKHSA
T4 sequence (P42336 whole entry): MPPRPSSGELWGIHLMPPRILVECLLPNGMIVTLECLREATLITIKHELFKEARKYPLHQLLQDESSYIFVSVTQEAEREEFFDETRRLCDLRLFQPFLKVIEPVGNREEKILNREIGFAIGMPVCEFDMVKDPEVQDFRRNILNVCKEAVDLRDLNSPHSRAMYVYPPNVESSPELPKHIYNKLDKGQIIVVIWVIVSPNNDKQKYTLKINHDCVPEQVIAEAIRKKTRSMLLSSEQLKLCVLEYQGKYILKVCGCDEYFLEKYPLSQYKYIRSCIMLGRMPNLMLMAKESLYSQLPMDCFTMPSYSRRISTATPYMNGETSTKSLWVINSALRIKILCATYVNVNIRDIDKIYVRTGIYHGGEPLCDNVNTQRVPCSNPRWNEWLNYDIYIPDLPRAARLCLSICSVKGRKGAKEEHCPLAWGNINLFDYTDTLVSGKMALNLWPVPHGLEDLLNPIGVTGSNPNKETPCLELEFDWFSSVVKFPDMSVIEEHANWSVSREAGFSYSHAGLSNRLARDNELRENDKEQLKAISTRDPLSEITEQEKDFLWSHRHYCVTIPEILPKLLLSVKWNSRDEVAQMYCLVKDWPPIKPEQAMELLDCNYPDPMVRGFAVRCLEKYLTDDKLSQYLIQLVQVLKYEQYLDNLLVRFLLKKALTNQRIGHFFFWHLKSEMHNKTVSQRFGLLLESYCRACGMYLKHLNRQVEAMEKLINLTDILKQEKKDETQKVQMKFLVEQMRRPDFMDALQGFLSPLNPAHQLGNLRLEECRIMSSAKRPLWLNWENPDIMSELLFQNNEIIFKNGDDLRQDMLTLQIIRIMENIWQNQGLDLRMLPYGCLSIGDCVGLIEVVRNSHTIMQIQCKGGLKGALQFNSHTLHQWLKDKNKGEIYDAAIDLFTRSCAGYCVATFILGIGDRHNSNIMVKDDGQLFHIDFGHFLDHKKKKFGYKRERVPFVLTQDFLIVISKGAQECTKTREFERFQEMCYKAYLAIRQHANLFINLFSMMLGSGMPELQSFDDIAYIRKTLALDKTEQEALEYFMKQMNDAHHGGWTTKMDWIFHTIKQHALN

Compound	IC50 (PI3Kγ)	IC50 (U87-MG cells)	IC50 (A549 cells)	IC50 (PI3Kδ)	IC50 (mTOR)	IC50 (PI3Kα)	IC50 (PI3Kβ)
CCNC(=O)Nc1ccc(-c2nc(N3CCOCC3)nc3c2cnn3CC(C)(C)O)cc1 [Example 1, 1-ethyl-3-[4-[1-(2-hydroxy-2-methyl-propyl)-6-morpholino-pyrazolo[3,4-d]pyrimidin-4-yl]phenyl]urea]	> 100 nM	< 1000 nM	< 1000 nM	> 100 nM	< 110 nM	> 100 nM	> 100 nM
CNC(=O)Nc1ccc(-c2nc(N3CCOCC3)nc3c2cnn3CC(C)(C)O)cc1 [Example 2, 1-[4-[1-(2-hydroxy-2-methyl-propyl)-6-morpholino-pyrazolo[3,4-d]pyrimidin-4-yl]phenyl]-3-methyl-urea]	> 100 nM	< 1000 nM	< 1000 nM	> 100 nM	< 110 nM	> 100 nM	> 100 nM
CNC(=O)Nc1ccc(-c2nc(N3CCOCC3)nc3c2cnn3C(C)C)cc1 [Example 3, 1-[4-(1-isopropyl-6-morpholino-pyrazolo[3,4-d]pyrimidin-4-yl)phenyl]-3-methyl-urea]	> 100 nM			> 100 nM	< 110 nM	> 100 nM	> 100 nM
CNC(=O)Nc1ccc(-c2nc(N3CCOCC3)nc3c2cnn3C2CCN(C(=O)OC)CC2)cc1 [Example 6, methyl 4-[4-[4-(methylcarbamoylamino)phenyl]-6-morpholino-pyrazolo[3,4-d]pyrimidin-1-yl]piperidine-1-carboxylate]	> 100 nM			> 100 nM	< 110 nM	> 100 nM	> 100 nM
CNC(=O)Nc1ccc(-c2nc(N3CCOCC3)nc3c2cnn3C2CCN(C(=O)CO)CC2)cc1 [Example 9, 1-[4-[1-[1-(2-hydroxyacetyl)-4-piperidyl]-6-morpholino-pyrazolo[3,4-d]pyrimidin-4-yl]phenyl]-3-methyl-urea]		< 1000 nM	< 1000 nM				
CNC(=O)Nc1ccc(-c2nc(N3CCOCC3)nc3c2cnn3C2CCN(C(=O)[C@H](C)O)CC2)cc1 [Example 10, 1-[4-[1-[1-[(2S)-2-hydroxypropanoyl]-4-piperidyl]-6-morpholino-pyrazolo[3,4-d]pyrimidin-4-yl]phenyl]-3-methylurea]		< 1000 nM	< 1000 nM				
CNC(=O)Nc1ccc(-c2nc(N3CCOCC3)nc3c2cnn3C2CCN(C(=O)COC)CC2)cc1 [Example 11, 1-[4-[1-[1-(2-methoxyacetyl)-4-piperidyl]-6-morpholino-pyrazolo[3,4-d]pyrimidin-4-yl]phenyl]-3-methyl-urea]		< 1000 nM	< 1000 nM				
CNC(=O)Nc1ccc(-c2nc(N3CCOC[C@@H]3C)nc3c2cnn3C2CCCC2)cc1 [Example 25, N-{4-[6-((3S)-3-methylmorpholin-4-yl)-1-cyclopentylpyrazolo[4,5-e]pyrimidin-4-yl]phenyl}(methylamino)carboxamide]		< 1000 nM	< 1000 nM				

The next lines start with the values.

IC50 (PI3Kγ)	IC50 (U87-MG cells)	IC50 (A549 cells)	IC50 (PI3Kδ)	IC50 (mTOR)	IC50 (PI3Kα)	IC50 (PI3Kβ)	Compound
> 100 nM	< 1000 nM	< 1000 nM	> 100 nM	< 110 nM	> 100 nM	> 100 nM	CNC(=O)Nc1ccc(-c2nc(N3CCOCC3)nc3c2cnn3C2CCOCC2)cc1 [Example 13, 1-methyl-3-[4-(6-morpholino-1-tetrahydropyran-4-yl-pyrazolo[3,4-d]pyrimidin-4-yl)phenyl]urea]
	< 1000 nM	< 1000 nM					CNC(=O)Nc1ccc(-c2nc(N3CC4CCC(C3)O4)nc3c2cnn3C2CCOCC2)cc1 [Example 14, 1-methyl-3-[4-[6-(8-oxa-3-azabicyclo[3.2.1]octan-3-yl)-1-tetrahydropyran-4-yl-pyrazolo[3,4-d]pyrimidin-4-yl]phenyl]urea]
> 100 nM	< 1000 nM	< 1000 nM	> 100 nM	< 110 nM	> 100 nM	> 100 nM	CNC(=O)Nc1ccc(-c2nc(N3CCOC[C@@H]3C)nc3c2cnn3C2CCOCC2)cc1 [Example 15, 1-methyl-3-[4-[6-[(3S)-3-methylmorpholin-4-yl]-1-tetrahydropyran-4-yl-pyrazolo[3,4-d]pyrimidin-4-yl]phenyl]urea]
> 100 nM			> 100 nM	< 110 nM	> 100 nM	> 100 nM	CNC(=O)Nc1ccc(-c2nc(N3CCOC[C@@H]3C)nc3c2cnn3CC(C)(C)O)cc1 [Example 16, N-{4-[6-((3S)-3-methylmorpholin-4-yl)-1-(2-hydroxy-2-methylpropyl)pyrazolo[4,5-e]pyrimidin-4-yl]phenyl}(methylamino)carboxamide]
> 100 nM			> 100 nM	< 110 nM	> 100 nM	> 100 nM	CNC(=O)Nc1ccc(-c2nc(N3CCOC[C@H]3C)nc3c2cnn3CC(C)(C)O)cc1 [Example 17, N-{4-[6-((3R)-3-methylmorpholin-4-yl)-1-(2-hydroxy-2-methylpropyl)pyrazolo[4,5-e]pyrimidin-4-yl]phenyl}(methylamino)carboxamide]
	< 1000 nM	< 1000 nM					CNC(=O)Nc1ccc(-c2nc(N3CCOCC3)nc3c2cnn3C2CCC(CO)CC2)cc1 (stereo not shown) [Example 20, N-(4-{1-[4-(hydroxymethyl)cyclohexyl]-6-morpholin-4-ylpyrazolo[4,5-e]pyrimidin-4-yl}phenyl)(methylamino)carboxamide]
	< 1000 nM	< 1000 nM					CNC(=O)Nc1ccc(-c2nc(N3CCOCC3)nc3c2cnn3C2CCC(O)CC2)cc1 (stereo not shown) [Example 22, N-{4-[1-(4-hydroxycyclohexyl)-6-morpholin-4-ylpyrazolo[4,5-e]pyrimidin-4-yl]phenyl}(methylamino)carboxamide]
	< 1000 nM	< 1000 nM					CNC(=O)Nc1ccc(-c2nc(N3CCOCC3)nc3c2cnn3C2CCCC2)cc1 [Example 24, N-[4-(1-cyclopentyl-6-morpholin-4-ylpyrazolo[4,5-e]pyrimidin-4-yl)phenyl](methylamino)carboxamide]

Reference: patent US8912178B2, “mTOR selective kinase inhibitors” (Xcovery Holdings Company, LLC, priority 2010, dated 2014)
